# Target: T1, SiaR (Haemophilus influenzae, UniProt P44540)
# T1 construct: gene HI_0143; C-terminal His-tag, plasmid pJJ185 (earlier work), expressed in E. coli, tag not reported cut
# Experiment: EMSA with nan-siaPT intergenic DNA probe
# Assay type: binding
# Settings: 100 μM GlcN-6P; co-activator; serial dilutions of SiaR; 15 nM DNA probe; pH 7.4, room temperature
# T1 sequence (P44540 whole entry): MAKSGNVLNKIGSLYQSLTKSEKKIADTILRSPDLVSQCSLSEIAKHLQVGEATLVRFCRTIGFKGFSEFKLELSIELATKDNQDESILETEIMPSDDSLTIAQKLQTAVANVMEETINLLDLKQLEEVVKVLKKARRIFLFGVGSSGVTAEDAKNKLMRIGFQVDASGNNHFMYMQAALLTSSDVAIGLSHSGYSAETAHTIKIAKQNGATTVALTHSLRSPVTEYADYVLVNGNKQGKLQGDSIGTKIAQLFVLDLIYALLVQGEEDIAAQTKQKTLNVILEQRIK
compound,measurement,value
N[C@H]1C(O)O[C@H](COP(=O)(O)O)[C@@H](O)[C@@H]1O (stereo partly shown) [GlcN-6P],EMSA with nan-siaPT intergenic DNA probe,SiaR bound the probe and GlcN-6P slightly increased the binding affinity

# Source: article PMC2946308, “Sialic acid transport and catabolism are cooperatively regulated by SiaR and CRP in nontypeable Haemophilus influenzae” (BMC Microbiology, 2010)
